Measurements as given in ChEMBL document CHEMBL1159218, “Metabolites of the Palauan sponge Axinyssa aplysinoides” (J Nat Prod, 1995).
Active and inactive are the calls of the source. The rule behind the calls is not given here.

How the values were obtained:
Staphylococcus aureus = assay: Antibacterial activity against Staphylococcus aureus at 25 ug/disk by disc-diffusion assay; assay type: functional, organism-based
Bacillus subtilis = assay: Antibacterial activity against Bacillus subtilis at 10 ug/disk by disc-diffusion assay; assay type: functional, organism-based

SMILES: CC(C)[C@H]1CC[C@@H](C)C2=CC[C@](C)(NC=O)C[C@@H]21 (relative stereo)
- Activity (Staphylococcus aureus): Active
- Activity (Bacillus subtilis): Active
